Experiment [1] has as its system CL1-5 cells. Nature of the experiment: Transwell migration assay, CL1-5 cells pretreated with peptide.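 On migration index: index equals control cell count divided by treated cell count.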 The class given is cell-based, human. Conditions: 12 hours; for cell number: control approximately 105. How it is done:
CL1-5 cells, an aggressively metastatic cell line derived from a human adenocarcinoma, were cultured in RPMI 1640 media with 10% FBS, 37° C. at 95% […]/5% CO2 until ready for use. Transwell plates (24-well, 8-um pore size; Costar, Cambridge, Mass., USA) were used to conduct the migration assay. The lower chambers of the Transwell plates were filled with 600 μl of basal media containing 10% FBS. The cells (1×10^5) were pretreated with 50 or 100 μM of the indicated test peptide for 30 min, and then suspended in 100 μl of basal media containing 1% BSA and added to the upper chamber, and the cells then were incubated at 37° C. for 12 hr. The cells on the upper surface of the filters were removed using cotton swabs, and the cells that migrated to the lower surface of the filters were washed, fixed, and stained with hematoxylin and counted under the microscope. The percent change in migration was determined by counting the number of cells that migrated to the lower surface of the filters. At least 3 separate microscopic fields were counted per membrane (n=4).
Primary CL1-5 cells originated from human adenocarcinoma lung cancer Transwell plates with 24-wells, 8-μ pore size (Costar, Cambridge, Mass., USA) were used to conduct the migration assay. The lower chambers of the transwell plates were filled with 600 μL of basal media containing 10% FBS. The cells (1-2×10^5) were suspended in 100 μL of basal media containing 1% BSA. The test peptide at desired concentration was added to the upper chamber directly or after preincubation with cancer cells. The plates were then incubated at 37° C. for 12 hours. The cells on the upper surface of the filters were removed using cotton swabs. The cells that migrated to the lower surface of the filters were washed, fixed, and stained with hematoxylin and counted under the microscope. At least five separate microscopic fields are counted per membrane (n=3). The percent change in migration was determined by counting the number of cells that migrated to the lower surface of the filters.
The count means the actual number of cells which migrated to the lower chamber and counted by a light microscope at 40× magnification, presented as the mean number of cells in 10 randomly chosen fields for each treatment.
The “index” was calculated by dividing the number of cells that migrated in the presence of peptides by the number of cells that migrated randomly (control group). […]. This calculation can reflect the extent that the migration of cells was blocked by 30 minute pretreatment with MANS-related peptides.

Experiment [2] relates to PC-9 cells. The experiment is described as follows: Orthotopic lung injection xenograph model, PC-9 cells in nude mice. The class given is in vivo. Conditions: 50 nmoles i.p. once every three days, 25 days. Here is the method: The metastatic activity of cancer cells in vivo after treatment with MANS peptide or BIO-11006 was assessed in the orthotopic lung injection xenograph model. After pretreatment with either PBS, or PBS+MANS, BIO-11006 (SEQ ID NO: 106), or the control RNS peptide at 100 μM for 4 hours, PC-9 cells were injected into the left lobe of the lung of nude mice. Seven days later, these mice were given systemic treatment with either PBS only (Con), RNS (additional control peptide), MANS or BIO-11006 at 50 nmoles per intraperitoneal injection once every three days. At 25 days (6 injections) post-seeding of these tumor cells, mice were sacrificed and the number of metastasized tumor nodules in the contralateral lung and other organs was counted.

Experiment [3] concerns A549. Nature of the experiment: Transwell migration assay, A549 cells. The class given is cell-based, human. As to conditions: A549, 50 μm, 12 hr. How it is done:
The human adenocarcinoma-derived alveolar epithelial cell line A549 (an invasive cell line) was obtained from the American Type Culture Collection (ATCC) and was cultured in RPMI-1640 supplemented with 10% fetal bovine serum and 100 U/ml penicillin/streptomycin, in 75 cm^2 tissue culture flasks. The cells reached confluence by the third day of culture at 37° C. in an atmosphere of 95% air and 5% CO2 and were maintained by serial passage.
The test peptides (MANS, RNS, BIO-11006, BIO-11000, BIO-11002, BIO-91200, and BIO-10901) were dissolved in PBS at a pH of 7.0; slow vortex mixing for about two hours aided solubility.
Transwell plates (24-well, […]; Costar, Cambridge, Mass., USA) were used to conduct the migration assay. The lower chambers of the transwell plates were filled with 600 μl of basal medium containing 10% FBS. The cells (1×10^5) were suspended in 100 μl of basal medium containing 1% BSA and added to the upper chamber, and the plates incubated at 37° C. with 5% CO2 for 12 hr in PBS (control), or the indicated test peptides at 10, 25 or 50 μM. The cells on the upper surface of the filters were removed using cotton swabs. The cells that migrated to the lower surface of the filters were washed, fixed, and stained with hematoxylin and counted under the microscope. The percent change in migration is determined by counting the number of cells that migrated to the lower surface of the filters. At least four separate microscopic fields are counted per membrane, with a total of three replicate experiments at each concentration. The statistics software “Prizm” was used for data analysis.

Experiment [4] deals with A549 cells. Nature of the experiment: Anti-metastatic efficacy in SCID mice given A549 cells via the tail vein. As to conditions: Day 53; for No. of metastatic nodules in lungs Mean ± SEM: aerosol 100 μM every other day for 7 weeks. The class given is in vivo. Here is the method: Female NOD.CB17-Prkdc^scid/NCrHsd, Mus musculus mice (Harlan, The Netherlands), housed in individually ventilated cages, were randomized into six groups of eight mice each. A549 cells (2.5×10^6) were injected into the mice via the tail vein. The control group received aerosolized vehicle PBS; while the groups 2 and 3 received the aerosolized test compound BIO-11006 either from −1 day before the cancer cells injection (group 2) or from +3 days after the cancer cell injection (group 3) on every other day for 7 weeks via nebulizer (Aeroneb Lab). Groups 4 and 5 received the aerosolized test compound MANS peptide either from −1 day before the cancer cell line injection (group 4) or from +3 days after the cell line injection (group 5) on every other day for 7 weeks via a nebulizer (Aeroneb Lab). For aerosol delivery, solution of each test compound (100 μM) was prepared in PBS, pH 7.0. For each treatment, 5 mL of test compound solution was aerosolized over 30 minutes into a chamber containing four mice at a time. The mice were monitored for body weight every other day for 7 weeks.
One group of mice (n=7) served as normal control. These were untreated naïve mice used to monitor the health status of mice during the study period. All animals from all groups were sacrificed on Day 53. FIG. 15 compares number of metastatic nodules in lungs after respective administration of BIO-11006 and MANS peptide on Day 53 following A549 cell injection. […] There were few focal tumor nodules in ⅞ of mice treated with BIO-11006 peptide starting at either Day −1 or Day +3 relative to A549 cell injection.

Where no end group is shown, it is not given here. The star is where a group is joined. Myristoyl = CCCCCCCCCCCCCC(=O)*

With “N-myristoyl-GAQFSKTAAKGEAAAERPGEAAVA (Myristoyl-GAQFSKTAAKGEAAAERPGEAAVA; listed as Homo sapiens) [MANS peptide]”, the cell number entry in experiment [1] (CL1-5, 50 μmolar pretreatment, FIG. 9) is “approximately 45”; in experiment [1] (CL1-5, 100 μmolar pretreatment, FIG. 10) it was “approximately 35”. The migration index result is given as “approximately 2.5” in experiment [1] (CL1-5, 50 μmolar pretreatment, FIG. 9, control=1.0); “approximately 2.5” in experiment [1] (CL1-5, 50 μmolar, FIG. 8A, control=1, higher value signifies less migration); “approximately 3.5” in experiment [1] (CL1-5, 100 μmolar pretreatment, FIG. 10, control=1.0); “approximately 4.3” in experiment [1] (CL1-5, 100 μmolar, FIG. 8B, control=1, higher value signifies less migration). For the same substance, the migrated cell numbers result in experiment [1] (CL1-5, pretreatment at 50 μmolar, FIG. 7A) is listed as “approximately 40”; in experiment [1] (CL1-5, pretreatment at 100 μmolar, FIG. 7B), “approximately 20”. Besides, in experiment [2], the “Metastases (affected mice/total mice) Diaphragm” value is given as 0/4. For the same substance, in experiment [2], the “Metastases (affected mice/total mice) Heart” value was 0/4. The “Metastases (affected mice/total mice) Intestines” value in experiment [2] was 0/4. Also, the “Metastases (affected mice/total mice) Spleen” value in experiment [2] was 0/4. For the same substance, the “No. of Metastatic Lung Tumors Mean ± SE (L't)” value in experiment [2] (left lung) was 0; 0. In addition, in experiment [2] (right lung), the “No. of Metastatic Lung Tumors Mean ± SE (R't)” value is listed as 0; 0. In addition, the “Tumor Size (mm) Mean ± SE” value in experiment [2] (tumor at site of injection, cells pretreated 100 μM 4 hours) was 1.48 ± 0.54 mm. Moreover, in experiment [3], the “migration index numbers relative to control and to RNS peptide” value is given as “increased migration index numbers”. Moreover, the “migrated cell numbers relative to control and to RNS peptide” value in experiment [3] (FIG. 11) is recorded as “decreased migrated cell numbers”. For the same substance, the “animals with few focal tumor nodules” value in experiment [4] (+3 Day treatment group) is “Few focal tumor nodules in 7/8”; in experiment [4] (−1 Day treatment group), “Few focal tumor nodules in 4/8”. The distant metastasis result in experiment [4] (+3 Day treatment group) and in experiment [4] (−1 Day treatment group) was “No distant metastasis” in each case. Further, the results for the “No. of metastatic nodules in lungs Mean ± SEM” value in experiment [4] (+3 Day treatment group) and in experiment [4] (−1 Day treatment group) were 13 ± 4 and 22 ± 7, respectively.

The record behind these values is patent US11466054B2, “Inhibitors of metastasis” (BIOMARCK PHARMACEUTICALS LTD., priority 2013, dated 2022).
